Source: ChEMBL document CHEMBL4477257, “In vitro cytotoxicity of novel 2,5,7-tricarbo-substituted indoles derived from 2-amino-5-bromo-3-iodoacetophenone” (2016)
Calls of active or inactive are those of the source. The rule behind the calls is not given here.

Tests used:
HeLa [1] = assay: Cytotoxicity against human HeLa cells assessed as cell viability at 20 uM after 2 days by MTT assay relative to control; format: functional; conditions: 48 h, read-out: Activity
MCF7 [2] = assay: Cytotoxicity against human MCF7 cells assessed as cell viability at 0.5 uM after 2 days by MTT assay relative to control; format: functional; conditions: MCF7, 48 h, read-out: Activity
HeLa [3] = assay: Induction of apoptosis in human HeLa cells assessed as caspase 3 activation at 0.75 to 3 uM after 24 hrs by colorimetric analysis; format: functional, cell-based
HeLa [4] = assay: Induction of apoptosis in human HeLa cells assessed as viable cells at 3 uM after 48 hrs by Annexin V/propidium iodide staining based flow cytometric analysis (reference value: 46.00 +/- 0.56 %); format: functional; conditions: read-out: Activity
MCF7 [5] = assay: Cytotoxicity against human MCF7 cells assessed as cell viability at 1 uM after 2 days by MTT assay relative to control; format: functional; conditions: MCF7, 48 h, read-out: Activity
MCF7 [6] = assay: Cytotoxicity against human MCF7 cells assessed as cell viability at 10 uM after 2 days by MTT assay relative to control; format: functional; conditions: MCF7, 48 h, read-out: Activity
HeLa [7] = assay: Cytotoxicity against human HeLa cells assessed as reduction in cell viability after 2 days by MTT assay; format: functional; conditions: 48 h, read-out: LC50 (the source's name)
HeLa [8] = assay: Induction of apoptosis in human HeLa cells assessed as late apoptotic cells at 3 uM after 48 hrs by Annexin V/propidium iodide staining based flow cytometric analysis (reference value: 31.80 +/- 0.25 %); format: functional
MCF7 [9] = assay: Cytotoxicity against human MCF7 cells assessed as cell viability at 5 uM after 2 days by MTT assay relative to control; format: functional; conditions: MCF7, 48 h, read-out: Activity
HeLa [10] = assay: Cytotoxicity against human HeLa cells assessed as cell viability at 1 uM after 2 days by MTT assay relative to control; format: functional; conditions: 48 h, read-out: Activity
MCF7 [11] = assay: Cytotoxicity against human MCF7 cells assessed as cell viability at 20 uM after 2 days by MTT assay relative to control; format: functional; conditions: MCF7, 48 h, read-out: Activity
HeLa [12] = assay: Induction of apoptosis in human HeLa cells assessed as necrotic cells at 3 uM after 48 hrs by Annexin V/propidium iodide staining based flow cytometric analysis (reference value: 21.45 +/- 0.78 %); format: functional
HeLa [13] = assay: Cytotoxicity against human HeLa cells assessed as cell viability at 5 uM after 2 days by MTT assay relative to control; format: functional; conditions: 48 h, read-out: Activity
MCF7 [14] = assay: Cytotoxicity against human MCF7 cells assessed as cell viability at 2 uM after 2 days by MTT assay relative to control; format: functional; conditions: MCF7, 48 h, read-out: Activity
MCF7 [15] = assay: Cytotoxicity against human MCF7 cells assessed as reduction in cell viability after 2 days by MTT assay; format: functional; conditions: MCF7, 48 h, read-out: LC50 (the source's name)
HeLa [16] = assay: Cytotoxicity against human HeLa cells assessed as cell viability at 2 uM after 2 days by MTT assay relative to control; format: functional; conditions: 48 h, read-out: Activity
HeLa [17] = assay: Cytotoxicity against human HeLa cells assessed as cell viability at 10 uM after 2 days by MTT assay relative to control; format: functional; conditions: 48 h, read-out: Activity
HeLa [18] = assay: Induction of apoptosis in human HeLa cells assessed as early apoptotic cells at 3 uM after 48 hrs by Annexin V/propidium iodide staining based flow cytometric analysis (reference value: 0.05 +/- 0.07 %); format: functional
HeLa [19] = assay: Cytotoxicity against human HeLa cells assessed as cell viability at 0.5 uM after 2 days by MTT assay relative to control; format: functional; conditions: 48 h, read-out: Activity
HeLa [20] = assay: Induction of apoptosis in human HeLa cells assessed as viable cells at 10 uM after 48 hrs by Annexin V/propidium iodide staining based flow cytometric analysis (reference value: 46.00 +/- 0.56 %); format: functional; conditions: read-out: Activity
HeLa [21] = assay: Cytotoxicity against human HeLa cells assessed as cell viability at 0.1 uM after 2 days by MTT assay relative to control; format: functional; conditions: 48 h, read-out: Activity
HeLa [22] = assay: Cytotoxicity against human HeLa cells assessed as cell viability at 100 uM after 2 days by MTT assay relative to control; format: functional; conditions: 48 h, read-out: Activity
HeLa [23] = assay: Induction of apoptosis in human HeLa cells after 48 hrs by Annexin V/propidium iodide staining based flow cytometric analysis; format: functional, cell-based
HeLa [24] = assay: Induction of apoptosis in human HeLa cells assessed as caspase 3 activation at 2.5 to 10 uM after 24 hrs by colorimetric analysis; format: functional
HeLa [25] = assay: Induction of apoptosis in human HeLa cells assessed as late apoptotic cells at 2.5 uM after 48 hrs by Annexin V/propidium iodide staining based flow cytometric analysis (reference value: 31.80 +/- 0.25 %); format: functional
HeLa [26] = assay: Induction of apoptosis in human HeLa cells assessed as late apoptotic cells at 5 uM after 48 hrs by Annexin V/propidium iodide staining based flow cytometric analysis (reference value: 31.80 +/- 0.25 %); format: functional
HeLa [27] = assay: Induction of apoptosis in human HeLa cells assessed as necrotic cells at 10 uM after 48 hrs by Annexin V/propidium iodide staining based flow cytometric analysis (reference value: 21.45 +/- 0.78 %); format: functional
MCF7 [28] = assay: Cytotoxicity against human MCF7 cells assessed as cell viability at 0.1 uM after 2 days by MTT assay relative to control; format: functional; conditions: MCF7, 48 h, read-out: Activity
HeLa [29] = assay: Induction of apoptosis in human HeLa cells assessed as necrotic cells at 2.5 uM after 48 hrs by Annexin V/propidium iodide staining based flow cytometric analysis (reference value: 21.45 +/- 0.78 %); format: functional
HeLa [30] = assay: Induction of apoptosis in human HeLa cells assessed as early apoptotic cells at 10 uM after 48 hrs by Annexin V/propidium iodide staining based flow cytometric analysis (reference value: 0.05 +/- 0.07 %); format: functional
HeLa [31] = assay: Induction of apoptosis in human HeLa cells assessed as early apoptotic cells at 2.5 uM after 48 hrs by Annexin V/propidium iodide staining based flow cytometric analysis (reference value: 0.05 +/- 0.07 %); format: functional
HeLa [32] = assay: Induction of apoptosis in human HeLa cells assessed as viable cells at 2.5 uM after 48 hrs by Annexin V/propidium iodide staining based flow cytometric analysis (reference value: 46.00 +/- 0.56 %); format: functional; conditions: read-out: Activity
HeLa [33] = assay: Induction of apoptosis in human HeLa cells assessed as late apoptotic cells at 10 uM after 48 hrs by Annexin V/propidium iodide staining based flow cytometric analysis (reference value: 31.80 +/- 0.25 %); format: functional
HeLa [34] = assay: Induction of apoptosis in human HeLa cells assessed as necrotic cells at 5 uM after 48 hrs by Annexin V/propidium iodide staining based flow cytometric analysis (reference value: 21.45 +/- 0.78 %); format: functional
HeLa [35] = assay: Induction of apoptosis in human HeLa cells assessed as DNA fragmentation at 2.5 to 10 uM after 48 hrs by ethidium bromide staining based agarose gel electrophoresis; format: functional, cell-based
HeLa [36] = assay: Induction of apoptosis in human HeLa cells assessed as early apoptotic cells at 5 uM after 48 hrs by Annexin V/propidium iodide staining based flow cytometric analysis (reference value: 0.05 +/- 0.07 %); format: functional
MCF7 [37] = assay: Cytotoxicity against human MCF7 cells assessed as cell viability at 100 uM after 2 days by MTT assay relative to control; format: functional; conditions: MCF7, 48 h, read-out: Activity
HeLa [38] = assay: Induction of apoptosis in human HeLa cells assessed as viable cells at 5 uM after 48 hrs by Annexin V/propidium iodide staining based flow cytometric analysis (reference value: 46.00 +/- 0.56 %); format: functional; conditions: read-out: Activity

Compound | viability at 1 µM (MCF7 [5]) [%] | viability at 10 µM (MCF7 [6]) [%] | CC50 (HeLa [7]) [µM] | viability at 1 µM (HeLa [10]) [%] | CC50 (MCF7 [15]) [µM] | viability at 10 µM (HeLa [17]) [%] | viability at 10 µM (HeLa [20]) [%] | viability at 0.1 µM (HeLa [21]) [%] | viability at 100 µM (HeLa [22]) [%] | fold change (FC) (HeLa [24]) | Activity (HeLa [25]) [%] | Activity (HeLa [26]) [%] | Activity (HeLa [27]) [%] | viability at 0.1 µM (MCF7 [28]) [%] | Activity (HeLa [29]) [%] | Activity (HeLa [30]) [%] | Activity (HeLa [31]) [%] | viability at 2.5 µM (HeLa [32]) [%] | Activity (HeLa [33]) [%] | Activity (HeLa [34]) [%] | also measured
COc1cccc2c1C(=O)c1c(O)c3c(c(O)c1C2=O)C[C@@](O)(C(=O)CO)C[C@@H]3O[C@H]1C[C@H](N)[C@H](O)[C@H](C)O1.Cl [DOXORUBICIN HYDROCHLORIDE] | 44 | 27.5 | 0.78 | 46 | 1.07 | 4.43 | – | – | – | – | – | – | – | – | – | – | – | – | – | – | viability at 20 µM (HeLa [1]): 3.41%; viability at 0.5 µM (MCF7 [2]): 66.4%; Activity (HeLa [3]): Active; viability at 3 µM (HeLa [4]): 1.55%; Activity (HeLa [8]): 58.5%; viability at 5 µM (MCF7 [9]): 34%; viability at 20 µM (MCF7 [11]): 24%; Activity (HeLa [12]): 40.4%; viability at 5 µM (HeLa [13]): 8.53%; viability at 2 µM (MCF7 [14]): 38.4%; viability at 2 µM (HeLa [16]): 39.2%; Activity (HeLa [18]): 0.95%; viability at 0.5 µM (HeLa [19]): 62.8%
COc1ccc(-c2cc(C(C)=O)c3[nH]c(-c4ccc(OC)cc4)cc3c2)cc1 | 62.6 | 56.4 | 7.13 | 60.2 | 25.2 | 37.1 | 3.7 | 74.5 | 20.2 | 4 | 12.9 | 37.55 | 47.4 | 96.5 | 23.2 | 0.15 | 0.1 | 65.2 | 47.75 | 42.65 | Activity (HeLa [23]): Dose-dependent effect; Activity (HeLa [35]): Active; Activity (HeLa [36]): 0.15%; viability at 100 µM (MCF7 [37]): 39.9%; viability at 5 µM (HeLa [38]): 20.4%
CC(=O)c1cc(/C=C/c2ccc(F)cc2)cc2cc(-c3ccc(F)cc3)[nH]c12 | 82 | 67.4 | 5.68 | 53.7 | > 100 | 41.9 | 22.4 | 72.6 | 20.3 | 3 | 33.5 | 44 | 64.1 | 98.8 | 14.35 | 0.35 | 0.2 | 52.4 | 13.4 | 20.4 | Activity (HeLa [35]): Active; Activity (HeLa [36]): 0.5%; viability at 100 µM (MCF7 [37]): 42.2%; viability at 5 µM (HeLa [38]): 35.5%
